{
  "source": "patent US11059813B2",
  "about": "“Polymorphic forms of Dasatinib” (BIOCON LIMITED, priority 2017, dated 2021)",
  "origin": "cited, not measured here",
  "key": {"[1]": {"details": "co-former alone; for thermal stability: melting points greater than 300° C."}, "rat": {"tested_on": "rat", "details": "in vivo, po"}, "[2]": {"details": "co-former alone"}},
  "data": [
    {"compound": "Nc1ncnc2nc[nH]c12", "note": "[Adenine]", "values": [
      {"measurement": "chemical stability", "setting": "[1]", "value": "chemically stable"},
      {"measurement": "thermal stability", "setting": "[1]", "value": "thermally stable"},
      {"measurement": "LD50 value", "setting": "rat", "value": 227, "unit": "mg/kg"},
      {"measurement": "hygroscopicity", "setting": "[2]", "value": "non-hygroscopic"}
    ]},
    {"compound": "Cc1nc(Nc2ncc(C(=O)Nc3c(C)cccc3Cl)s2)cc(N2CCN(CCO)CC2)n1", "note": "[Dasatinib, N-(2-chloro-6-methylphenyl)-2-[[6-[4-(2-hydroxyethyl)-1-piperazinyl]-2-methyl-4-pyrimidinyl]amino]-5-thiazole carboxamide]", "values": [
      {"measurement": "solubility in water", "value": "poor"}
    ]},
    {"compound": "Cc1c[nH]c(=O)[nH]c1=O", "note": "[Thymine]", "values": [
      {"measurement": "chemical stability", "setting": "[1]", "value": "chemically stable"},
      {"measurement": "thermal stability", "setting": "[1]", "value": "thermally stable"},
      {"measurement": "LD50 value", "setting": "rat", "value": 3500, "unit": "mg/kg"},
      {"measurement": "hygroscopicity", "setting": "[2]", "value": "non-hygroscopic"}
    ]}
  ]
}
